Measured values: PubChem BioAssay (NCI)
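GI50 = concentration required for 50% inhibition of growth. TGI: total growth inhibition.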

Experiments:
Assay in all cases: DTP human tumour cell line panel, 384-well format
SW-620 colon = test system: SW-620 colon
SNB-75 CNS = test system: SNB-75 CNS
COLO 205 colon = test system: COLO 205 colon
SNB-19 CNS = test system: SNB-19 CNS
U251 glioblastoma = test system: U251 glioblastoma
RPMI-8226 leukemia = test system: RPMI-8226 leukemia
T-47D breast = test system: T-47D breast
CAKI-1 renal = test system: CAKI-1 renal
A549 NSCLC = test system: A549 NSCLC
UO-31 renal = test system: UO-31 renal
MALME-3M melanoma = test system: MALME-3M melanoma
HCT-116 colon = test system: HCT-116 colon
SK-MEL-2 melanoma = test system: SK-MEL-2 melanoma
OVCAR-4 ovarian = test system: OVCAR-4 ovarian
HOP-62 NSCLC = test system: HOP-62 NSCLC
MCF7 breast = test system: MCF7 breast
BT-549 breast = test system: BT-549 breast
UACC-62 melanoma = test system: UACC-62 melanoma
HS 578T breast = test system: HS 578T breast
ACHN renal = test system: ACHN renal
LOX IMVI melanoma = test system: LOX IMVI melanoma
HOP-92 NSCLC = test system: HOP-92 NSCLC
HCT-15 colon = test system: HCT-15 colon
NCI-H322M lung = test system: NCI-H322M lung
MOLT-4 leukemia = test system: MOLT-4 leukemia
SK-OV-3 ovarian = test system: SK-OV-3 ovarian
IGROV1 ovarian = test system: IGROV1 ovarian
786-0 renal = test system: 786-0 renal
HT29 colon = test system: HT29 colon
OVCAR-3 ovarian = test system: OVCAR-3 ovarian
NCI-H23 lung = test system: NCI-H23 lung
SK-MEL-5 melanoma = test system: SK-MEL-5 melanoma
TK-10 renal = test system: TK-10 renal
NCI-H460 NSCLC = test system: NCI-H460 NSCLC
MDA-MB-435 melanoma = test system: MDA-MB-435 melanoma
HCC-2998 colon = test system: HCC-2998 colon
OVCAR-8 ovarian = test system: OVCAR-8 ovarian
KM12 colon = test system: KM12 colon
MDA-MB-231 breast = test system: MDA-MB-231 breast
OVCAR-5 ovarian = test system: OVCAR-5 ovarian
MDA-MB-468 breast = test system: MDA-MB-468 breast
SN12C renal = test system: SN12C renal
DU-145 prostate = test system: DU-145 prostate
HL-60(TB) leukemia = test system: HL-60(TB) leukemia
RXF 393 renal = test system: RXF 393 renal
UACC-257 melanoma = test system: UACC-257 melanoma
A498 renal = test system: A498 renal
CCRF-CEM leukemia = test system: CCRF-CEM leukemia
SF-295 CNS = test system: SF-295 CNS
SK-MEL-28 melanoma = test system: SK-MEL-28 melanoma
K-562 leukemia = test system: K-562 leukemia
NCI-H522 lung = test system: NCI-H522 lung
SF-268 CNS = test system: SF-268 CNS
PC-3 prostate = test system: PC-3 prostate
SF-539 CNS = test system: SF-539 CNS
NCI-H226 lung = test system: NCI-H226 lung
EKVX NSCLC = test system: EKVX NSCLC
NCI/ADR-RES ovarian = test system: NCI/ADR-RES ovarian
M14 melanoma = test system: M14 melanoma

## NC(=O)c1cccc2c(N[C@H](CN3CCC3)c3ccc(Cl)c(C(F)(F)F)c3)ncnc12
SW-620 colon
  GI50: 1.86 µM
  TGI: 7.73 µM
SNB-75 CNS
  GI50: 0.258 µM
  TGI: 1.57 µM
COLO 205 colon
  GI50: 0.951 µM
  TGI: 2.16 µM
SNB-19 CNS
  GI50: 1.73 µM
  TGI: 5.2 µM
U251 glioblastoma
  GI50: 1.89 µM
  TGI: 10.4 µM
RPMI-8226 leukemia
  GI50: 1.2 µM
  TGI: 2.45 µM
T-47D breast
  GI50: 0.199 µM
  TGI: 1.39 µM
CAKI-1 renal
  GI50: 1.29 µM
  TGI: 3.65 µM
A549 NSCLC
  GI50: 1.51 µM
  TGI: 6.39 µM
UO-31 renal
  GI50: 1.58 µM
  TGI: 9.03 µM
MALME-3M melanoma
  GI50: 0.457 µM
  TGI: 1.71 µM
HCT-116 colon
  GI50: 1.8 µM
  TGI: 5.39 µM
SK-MEL-2 melanoma
  GI50: 1.31 µM
  TGI: 2.66 µM
OVCAR-4 ovarian
  GI50: 3.02 µM
  TGI: 12 µM
HOP-62 NSCLC
  GI50: 3.32 µM
  TGI: 12 µM
MCF7 breast
  GI50: 0.362 µM
  TGI: 1.86 µM
BT-549 breast
  GI50: 0.316 µM
  TGI: 1.52 µM
UACC-62 melanoma
  GI50: 0.98 µM
  TGI: 2.21 µM
HS 578T breast
  GI50: 0.75 µM
  TGI: 2.35 µM
ACHN renal
  GI50: 1.95 µM
  TGI: 12.2 µM
LOX IMVI melanoma
  GI50: 2.18 µM
  TGI: 7 µM
HOP-92 NSCLC
  GI50: 1.32 µM
  TGI: 3.35 µM
HCT-15 colon
  GI50: 1.19 µM
  TGI: 8.43 µM
NCI-H322M lung
  GI50: 3.1 µM
  TGI: 14.4 µM
MOLT-4 leukemia
  GI50: 0.0882 µM
  TGI: 0.718 µM
SK-OV-3 ovarian
  GI50: 0.43 µM
  TGI: 2.91 µM
IGROV1 ovarian
  GI50: 0.247 µM
  TGI: 1.88 µM
786-0 renal
  GI50: 0.482 µM
  TGI: 1.94 µM
HT29 colon
  GI50: 1.4 µM
  TGI: 2.98 µM
OVCAR-3 ovarian
  GI50: 2.72 µM
  TGI: 11.2 µM
NCI-H23 lung
  GI50: 1.73 µM
  TGI: 6.24 µM
SK-MEL-5 melanoma
  GI50: 1.38 µM
  TGI: 2.69 µM
TK-10 renal
  GI50: 1.25 µM
  TGI: 3.18 µM
NCI-H460 NSCLC
  GI50: 0.366 µM
  TGI: 2.4 µM
MDA-MB-435 melanoma
  GI50: 1.32 µM
  TGI: 5.51 µM
HCC-2998 colon
  GI50: 1.04 µM
  TGI: 2.23 µM
OVCAR-8 ovarian
  GI50: 2.56 µM
  TGI: 11.2 µM
KM12 colon
  GI50: 0.92 µM
  TGI: 6.88 µM
MDA-MB-231 breast
  GI50: 2.72 µM
  TGI: 13.7 µM
OVCAR-5 ovarian
  GI50: 2.79 µM
  TGI: 11.2 µM
MDA-MB-468 breast
  GI50: 0.256 µM
  TGI: 1.25 µM
SN12C renal
  GI50: 2.1 µM
  TGI: 12.6 µM
DU-145 prostate
  GI50: 2.63 µM
  TGI: 13.8 µM
HL-60(TB) leukemia
  GI50: 1.56 µM
  TGI: 2.91 µM
RXF 393 renal
  GI50: 0.231 µM
  TGI: 1.34 µM
UACC-257 melanoma
  GI50: 1.02 µM
  TGI: 2.19 µM
A498 renal
  GI50: 0.138 µM
  TGI: 1.52 µM
CCRF-CEM leukemia
  GI50: 0.41 µM
  TGI: 1.75 µM
SF-295 CNS
  GI50: 1.02 µM
  TGI: 3.22 µM
SK-MEL-28 melanoma
  GI50: 1.26 µM
  TGI: 2.69 µM
K-562 leukemia
  GI50: 1.64 µM
  TGI: 3.2 µM
NCI-H522 lung
  GI50: 1.19 µM
  TGI: 5.7 µM
SF-268 CNS
  GI50: 1.48 µM
  TGI: 4.2 µM
PC-3 prostate
  GI50: 0.345 µM
  TGI: 3.85 µM
SF-539 CNS
  GI50: 0.195 µM
  TGI: 1.63 µM
NCI-H226 lung
  GI50: 2.35 µM
  TGI: 8.74 µM
EKVX NSCLC
  GI50: 1.15 µM
  TGI: 5.01 µM
NCI/ADR-RES ovarian
  GI50: 2.79 µM
  TGI: 10.3 µM
M14 melanoma
  GI50: 1.21 µM
  TGI: 2.48 µM
